In patent publication US7230132B2, “Aryl N-cyanoguanidines and methods related thereto” (Migenix Corp., priority 2001, dated 2007):

How the values were obtained:
Assay type in all cases: cell-based
TC28 cells [1] = assay: GAG release from TC28 chondrocytes in polyHEME plates (DMB dye binding assay); settings: for % Decrease in GAG Release, IL-1b / % Decrease in GAG Release, NOC-12 / % Decrease in GAG Release, SIN-1: TC28 cells in polyHEME plates, 1 μM compound; for % Decrease in GAG Release, IL-1b: trigger IL-1 10 ng/ml; for % Decrease in GAG Release, NOC-12: trigger NOC-12 25 μM; for % Decrease in GAG Release, SIN-1: trigger SIN-1 10 μM; for EC50: approximate, prevention of GAG release, polyHEME plates, 1 h pretreatment, 72 h
Description: Immortalized TC28 (a.k.a. “[…]”) juvenile rib chondrocytes were provided by Dr. Mary Goldring (Harvard Medical School, Boston, Mass.). The TC28 cells were maintained in monolayer culture in DMEM/Ham's F12 (1:1) and supplemented with 10% FCS, 1% L-glutamine, 100 units/ml Penicillin and […] Streptomycin (Omega Scientific, Tarzana, Ca) and cultured at 37° C. with 5% CO2. Additionally, to further study chondrocytic cells in a more physiologic nonadherent state, in some experiments, TC28 cells were transferred to 6 well plates that had been previously coated for 18 hours at 22° C. with 10% (v/v) in 95% ethanol solution of the cell adhesion inhibitor poly 2-hydroxyethyl methacrylate (polyHEME), followed by two washes in PBS. Complete DMEM/Ham's F12 medium was then added to the wells and the cells studied for up to 72 hours in culture (Folkman J. and Moscona A: Role of cell shape in growth control, Nature 273:345-349, 1978; Reginato A, Iozzo R, Jimenez S: Formation of Nodular Structures Resembling Mature Articular Cartilage in Long-Term Primary Cultures of Human Fetal Epiphyseal Chondrocytes on a Hydrogel Substrate, Arthritis Rheum 37: 1338-1349, 1994). Type II collagen and aggrecan expression were confirmed using RT-PCR, which verified maintenance of chondrocyte phenotype. The chondrocyte protective effects of representative compounds were screened in vitro. The agonists included a donor of nitric oxide (NOC-12), a donor of peroxynitrite (SIN-1), and human recombinant IL-1beta. […] Cytotoxicity was studied using standard LDH release assay, and chondrocyte intracellular ATP was measured by standard luciferase assay. The enhanced release from chondrocytes of glycosaminoglycans (GAG) is a central feature of osteoarthritic chondrocytes, and is known to be stimulated potently by IL-1, which, like NO and peroxynitrite is a major pathogenic factor in osteoarthritis. […] The digestion of the interfering proteins accomplished in this manner allowed the GAG release to be more readily detectable, and the GAG release was quantified by the standard dimethylene blue (DMB) dye binding colorimetric assay. In brief, the cell extract digested from above was combined with 46 μM DMB, 40 mM glycine and 40 mM NaCl (pH 3.0) and immediately read at 525 nm and compared again at a standard curve generated with samples of 1-50 μg/ml chondroitin sulfate (Farndale R, Buttle D, Barrett A: Improved quantitation and discrimination of sulphated glycosaminoglycans by us of dimethylmethylene blue, Biochimica et Biophysica Acta 883: 173-177, 1986; SztrolovicsR, White R, Poole R, Mort J, Roughley P: Resistance of small leucine-rich repeat proteoglycans to proteolytic degradation during interleukin-1 stimulated cartilage catabolism, Biochem J. 339: 571-577, 1999). Collagen production was measured by following ^3H proline incorporation as described in Johnson et al., Arthritis Rheum. 43:11560-70, 2000. […] In these experiments, TC28 cells in polyHEME coated plates were pre-treated for 1 hr followed by exposure to trigger for 72 hrs in the present of Compound (1).

TC28 cells [2] = assay: ATP assay (luciferase); settings: approximate, prevention of ATP depletion, 1 h pretreatment, 24 h exposure
Description: 5×10^5 TC28 cells were plated in a 60 mm dish and allowed to adhere overnight. The cells were then washed with PBS and media was changed to 1% FCS containing media. Compound (1) was added for 1 hr pretreatment of the cells at 37° C. The media was removed and fresh compound+/− the toxic stimuli were added and the cells incubated for 24 hrs at 37° C. The cells were gently scraped into PBS and washed and then the pellets were snap frozen in dry ice. The cells were then extracted in 0.4 N perchloric acid and incubated on ice for 15 min. The cells were centrifuged at 14,000 rpm for 15 min and the supernatant removed. 24% (by volume) of 2.2 M KHCO3 was added to neutralize the solution and the precipitate was pelleted by centrifugation. This supernatant was mixed with the ATP assay mix from the Sigma ATP Luciferase kit and the reaction was counted for 15 sec (with an initial 5 sec delay) in triplicate. Counts were corrected for total DNA in the cell pellet (see Table 3).
(§1) The results of the above Cell Viability and ATP Assays are presented in Table 3, which provides the approximate EC50 values (μM) for prevention of SIN-1 and NOC-12 mediated cell death and ATP depletion by Compound (1). In these assays, TC28 cells were pre-treated for one hour followed by 24-hour exposure to trigger in the presence of Compound (1).

TC28 cells [3] = assay: Cell viability assay (LDH release, CytoTox 96); settings: approximate, prevention of cell death, 1 h pretreatment, 24 h exposure
Description: 1×10^5 TC28 cells (DMEM/F12 media with 10% FCS, 1% glutamine, 1% P/S) were plated each well in a 96 well plate and allowed to adhere overnight. The cells were washed once with PBS and media changed to contain only 1% FCS. Compound (1) at various concentrations was added to the cells for a pretreatment of 1 hr. The media was removed and fresh compound+/− the toxic stimuli were added. The cells were then incubated for 24 hrs at 37° C. Following the incubation the media was collected and used for analysis in the CytTox 96 Nonradioactive Cytotoxicity Assay (Promega, Madison, Wis.). Briefly the LDH release from the dead cells was quantified in a 30 min enzymatic reaction that results in the conversion of a tetrazolium […] to a red formazan product. The results were then expressed as the percent of cells dead relative to the release of LDH by the control cells.
as §1

bovine cartilage slices [4] = assay: Bovine cartilage organ culture, IL-1-mediated NO release; settings: approximate, IL-1 10 ng/ml, 6 h pretreatment, 24 h, read-out: EC50 NO Release, IL-1 Trigger
Description: (§2) Mature bovine knees were obtained and cartilage from the femoral condyles and patellar groove was removed in full thickness slices. (1–3 mm). Circular cores (6–7 mm in diameter) were punched out of the tissue. The cores were washed twice with media (1% FCS, 1% P/S, 1% glutamine containing DMEM high glucose) and then placed in 96 wells plates. The slices were incubated in media (as above) at 37° C. for 48 hrs to allow for recovery from the isolation process. After the recovery period, the media was removed and fresh media with Compound (1) was added to the slices for a pretreatment period of 6 hrs. Then the media was removed and fresh Compound (1)+/− IL-1 (at 10 ng/ml) was added and incubated at 37° C. for 24 hrs. The conditioned media was collected and the GAG and NO release were analyzed. Finally the slices were weighed to correct for slight variations in size or thickness. The results of this experiment are presented in Table 5, which provides the approximate EC50 values (μM) for prevention of IL-1-mediated GAG and NO release in bovine cartilage slices by Compound (1).

bovine cartilage slices [5] = assay: Bovine cartilage organ culture, IL-1-mediated GAG release; settings: approximate, IL-1 10 ng/ml, 6 h pretreatment, 24 h, read-out: EC50 GAG Release, IL-1 Trigger
Description: as §2

TC28 cells [6] = assay: Oxygen consumption / mitochondrial respiration in TC28 monolayer culture; settings: 500 μM SIN-1 for 4 hr +/- 10 μM compound, FIG. 1
Description: In this experiment, TC28 cells were treated with 500 μM SIN-1 for 4 hr+/−10 μM Compound (1): State 3/4—basal respiration rate with no substrate addition; State 4—respiration rate in present of […] oligomycin; State 3U—maximal state 3 uncoupled respiration rate due to addition of the uncoupler CCCP.

TC28 cells [7] = assay: Collagen synthesis (3H proline incorporation); settings: approximate, prevention of inhibition of collagen synthesis, polyHEME plates, 1 h pretreatment, 72 h
Description: Collagen production was measured by following ^3H proline incorporation as described in Johnson et al., Arthritis Rheum. 43:11560–70, 2000. The results are presented in Table 4, which provides the approximate EC50 values (μM) for prevention of SIN-1, NOC-12 and IL-1 mediated GAG release (via Example 3) and inhibition of collagen synthesis (via Johnson et al.) in chondrocytes by Compound (1). In these experiments, TC28 cells in polyHEME coated plates were pre-treated for 1 hr followed by exposure to trigger for 72 hrs in the present of Compound (1).

Row | Compound | % Decrease in GAG Release, IL-1b (TC28 cells [1]) | % Decrease in GAG Release, NOC-12 (TC28 cells [1]) | % Decrease in GAG Release, SIN-1 (TC28 cells [1]) | also measured
1 | Cc1cc(C)cc(NC(N)=NC#N)c1 [(7)] | 56.6% | 46.2% | 42.3% | –
2 | Cc1ccc(NC(N)=NC#N)c(C)c1 [(6)] | 2.4% | 11.0% | 1.6% | –
3 | Cc1cc(Cl)ccc1NC(N)=NC#N [(8)] | 43.8% | 32.3% | 55.2% | –
4 | COc1cc(NC(N)=NC#N)cc(OC)c1OC [(4)] | 1.5% | 17.2% | 11.3% | –
5 | COc1ccc(NC(N)=NC#N)cc1Cl [(2)] | 40.9% | 50.1% | 23.6% | –
6 | N#CN=C(N)Nc1cccc(C(F)(F)F)c1 [(5)] | 30.7% | 14.2% | 35.0% | –
7 | N#CN=C(N)Nc1ccc(N2CCOCC2)cc1 [(3)] | 29.1% | 28.0% | 21.9% | –
8 | Cc1cc(O)ccc1NC(N)=NC#N [Compound (1)] | 36.8% | 27.4% | 47.7% | EC50 (TC28 cells [2]; NOC-12 challenge 250 μM, read-out: EC50 ATP Depletion, trigger Noc12): ~100 nM; EC50 (TC28 cells [2]; SIN-1 challenge 100 μM, read-out: EC50 ATP Depletion, trigger Sin-1): ~100 nM; EC50 (TC28 cells [3]; NOC-12 challenge 250 μM, read-out: EC50 Cell Viability, trigger Noc12): ~10 nM; EC50 (TC28 cells [3]; SIN-1 challenge 100 μM, read-out: EC50 Cell Viability, trigger Sin-1): ~10 nM; EC50 (TC28 cells [1]; IL-1 challenge 10 ng/ml, read-out: EC50 GAG Release, trigger IL-1): ~100 nM; EC50 (TC28 cells [1]; NOC-12 challenge 25 μM, read-out: EC50 GAG Release, trigger Noc12): ~100 nM; EC50 (TC28 cells [1]; SIN-1 challenge 10 μM, read-out: EC50 GAG Release, trigger Sin-1): ~100 nM; EC50 (bovine cartilage slices [4]): ~10000 nM; EC50 (bovine cartilage slices [5]): ~10000 nM; SIN-1-mediated inhibition of mitochondrial respiration (TC28 cells [6]): blocked SIN-1-mediated inhibition of mitochondrial respiration; EC50 (TC28 cells [7]; IL-1 challenge 10 ng/ml, read-out: EC50 Collagen, trigger IL-1): ~1000 nM; EC50 (TC28 cells [7]; NOC-12 challenge 25 μM, read-out: EC50 Collagen, trigger Noc12): ~1000 nM; EC50 (TC28 cells [7]; SIN-1 challenge 10 μM, read-out: EC50 Collagen, trigger Sin-1): ~1000 nM
